Activity calls are given as the source filed them.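 The calls were made as follows: active = a tumour-causing dose and a tumour site recorded for mice in at least one sex group; inconclusive = only government mouse studies exist and were judged inadequate; inactive = mouse studies exist but none gave tumours.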
System: mouse carcinogenicity bioassay, TD50 from CPDB
Test: DSSTox (CPDBAS) Carcinogenic Potency Database Summary Mouse Bioassay Results
Procedure, shortened: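 Values are TD50 carcinogenic potencies from mouse chronic bioassays, taking the most positive result for each sex-species. Sources are published literature and NCI/NTP studies; target sites reflect author-reported positive findings.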

[1] = TD50_Mouse_Note: no positive results, TargetSites_Mouse_Female: no positive results
[2] = TD50_Mouse_Note: TD50 is harmonic mean of more than one positive test, TargetSites_Mouse_Female: liver
[3] = TargetSites_Mouse_Female: no positive results
[4] = TargetSites_Mouse_Female: liver
[5] = TargetSites_Mouse_BothSexes: no positive results
[6] = TD50_Mouse_Note: TD50 is harmonic mean of more than one positive test, TargetSites_Mouse_Female: liver, lung, stomach
[7] = TD50_Mouse_Note: TD50 is harmonic mean of more than one positive test, TargetSites_Mouse_Female: stomach
[8] = TD50_Mouse_Note: positive test results only by intraperitoneal or intravenous injection, TargetSites_Mouse_Female: peritoneal cavity
[9] = TD50_Mouse_Note: TD50 is harmonic mean of more than one positive test, TargetSites_Mouse_Female: liver, stomach

Compound: C=CC=C
- Potency (TD50_Mouse_Note: TD50 is harmonic mean of more than one positive test, greater than ten-fold variation among TD50 values for positive res, TargetSites_Mouse_Female: harderian gland, hematopoietic system, liver, lung, mammary gland, ovary, stomach, vascular system): 0.257 mmol/kg/day

Compound: O=C/C(Cl)=C(/Cl)C(=O)O
- outcome [1]: inactive; no positive results

Compound: CC(/C=C/C=C(\C)C(=O)O[C@@H]1O[C@H](CO[C@@H]2O[C@H](CO)[C@@H](O)[C@H](O)[C@H]2O)[C@@H](O)[C@H](O)[C@H]1O)=C\C=C\C=C(C)\C=C\C=C(/C)C(=O)O[C@@H]1O[C@H](CO[C@@H]2O[C@H](CO)[C@@H](O)[C@H](O)[C@H]2O)[C@@H](O)[C@H](O)[C@H]1O
- outcome [1]: inactive; no positive results

Compound: ClC(Cl)(Cl)C(Cl)(Cl)Cl
- Potency [2]: 1.43 mmol/kg/day

Compound: O=C1C(Cl)=C(Cl)C(=O)C(Cl)=C1Cl
- outcome [1]: inactive; no positive results

Compound: FC(F)Cl
- outcome [1]: inactive; no positive results

Compound: Nc1c(Cl)cc(Cl)cc1Cl
- Potency [3]: 1.32 mmol/kg/day

Compound: Nc1ccc(Cc2ccc(N)c(Cl)c2)cc1Cl
- Potency [4]: 0.196 mmol/kg/day

Compound: Cc1cccc2ccccc12
- outcome [1]: inactive; no positive results

Compound: O=[N+]([O-])c1ccc(Cl)c([N+](=O)[O-])c1
- outcome [1]: inactive; no positive results

Compound: CC(C)C(C(=O)OC(C#N)c1cccc(Oc2ccccc2)c1)c1ccc(Cl)cc1 (stereo not drawn)
- outcome [1]: inactive; no positive results

Compound: COC(=O)C1=C(C)NC(C)=C(C(=O)OCCc2ccc(N3CCN(C(c4ccccc4)c4ccccc4)CC3)cc2)C1c1cccc([N+](=O)[O-])c1 (stereo not drawn)
- outcome [1]: inactive; no positive results

Compound: CN(C)CCOC(C)(c1ccccc1)c1ccccn1 (stereo not drawn)
- Potency (TD50_Mouse_Note: TD50 is harmonic mean of more than one positive test, TargetSites_Mouse_Female: liver, thyroid gland): 0.538 mmol/kg/day

Compound: CCCCNC(=O)NS(=O)(=O)c1ccc(C)cc1
- outcome [1]: inactive; no positive results

Compound: CCN(Cc1cccc(S(=O)(=O)O)c1)c1ccc(C(=C2C=CC(=[N+](CC)Cc3cccc(S(=O)(=O)[O-])c3)C=C2)c2ccc(S(=O)(=O)O)cc2)cc1
- outcome [1]: inactive; no positive results

Compound: CC(=O)OC/C=C(\C)CCC=C(C)C
- outcome [1]: inactive; no positive results

Compound: ClC1=C(Cl)C2(Cl)C3C(Cl)OC(Cl)C3C1(Cl)C2(Cl)Cl (stereo not drawn)
- outcome [1]: inactive; no positive results

Compound: COC(=O)C1=CCCN(C)C1
- Potency (TD50_Mouse_Note: TD50 is harmonic mean of more than one positive test, TargetSites_Mouse_Female: lung, vascular system): 0.206 mmol/kg/day

Compound: O=[N+]([O-])c1ccc2nc[nH]c2c1
- Potency [2]: 2.28 mmol/kg/day

Compound: C=C(Cl)Cl
- Potency (TD50_Mouse_Note: TD50 is harmonic mean of more than one positive test, TargetSites_Mouse_Female: lung, mammary gland, vascular system): 0.357 mmol/kg/day

Compound: Cc1ncc([N+](=O)[O-])n1CCO
- Potency (TD50_Mouse_Note: TD50 is harmonic mean of more than one positive test, TargetSites_Mouse_Female: hematopoietic system, lung): 2.96 mmol/kg/day

Compound: C[C@H](CCC(=O)O)[C@H]1CC[C@H]2[C@@H]3[C@H](O)C[C@@H]4C[C@H](O)CC[C@]4(C)[C@H]3CC[C@]12C
- outcome [5]: inactive

Compound: Cc1ccc(N)cc1Cl
- outcome [1]: inactive; no positive results

Compound: c1ccc2c(c1)Oc1ccccc1O2
- outcome [1]: inactive; no positive results

Compound: Nc1ccc(S(=O)(=O)c2ccc(N)cc2)cc1
- outcome [1]: inactive; no positive results

Compound: COc1cc(N=Nc2ccccc2)ccc1N
- Potency [4]: 0.265 mmol/kg/day

Compound: Cc1ccc(NC(N)=O)cc1
- Potency [3]: 1.37 mmol/kg/day

Compound: Cc1cc(N)ccc1N
- outcome [1]: inactive; no positive results

Compound: O=NN1CCCCC1
- Potency: 0.0114 mmol/kg/day

Compound: Nc1ccc([N+](=O)[O-])cc1N
- outcome [1]: inactive; no positive results

Compound: Cc1c(N)cccc1N
- outcome [1]: inactive; no positive results

Compound: Cc1cc(O)c2c(c1)C(=O)c1cc(O)cc(O)c1C2=O
- outcome [1]: inactive; no positive results

Compound: C#C[C@]1(OC(C)=O)CC[C@H]2[C@@H]3CCC4=CC(=O)CC[C@@H]4[C@H]3CC[C@@]21C
- outcome (TD50_Mouse_Note: no positive results are statistically significant, TD50_Mouse_mmol was not calculated for this mixture, but Activiity Sc, TargetSites_Mouse_Female: pituitary gland): active

Compound: Oc1ccc2ccccc2c1N=Nc1ccccc1
- outcome [1]: inactive; no positive results

Compound: c1ccc2occc2c1
- Potency [6]: 0.212 mmol/kg/day

Compound: CC(C)(OCc1ccc(-c2ccc(Cl)cc2)cc1)C(=O)O
- Potency [3]: 0.505 mmol/kg/day

Compound: Nc1ccc(Cl)cc1N
- Potency [2]: 9.4 mmol/kg/day

Compound: CC(CCl)OC(C)CCl (stereo not drawn)
- Potency (TD50_Mouse_Note: TD50 is harmonic mean of more than one positive test, TargetSites_Mouse_Female: lung): 1.12 mmol/kg/day

Compound: Cc1ccc(N)c(C)c1
- Potency (TargetSites_Mouse_Female: lung): 0.0787 mmol/kg/day

Compound: NC(=O)Cc1cccc2ccccc12
- outcome [1]: inactive; no positive results

Compound: Cc1cc(O)c2c(c1O)C(=O)C13C(=C2O)C(=O)C2C(O)C1C1C(O)C3C(=O)C3=C(O)c4c(O)cc(C)c(O)c4C(=O)C321 (stereo not drawn)
- Potency [2]: 0.0324 mmol/kg/day

Compound: C/C=C/C=C/C=O
- Potency [7]: 1.83 mmol/kg/day

Compound: COc1ccc(OC)c(/C=C/c2ccc(N)cc2)c1
- Potency [3]: 0.376 mmol/kg/day

Compound: COc1ccc(C(=O)/C(Br)=C\C(=O)O)cc1
- outcome [1]: inactive; no positive results

Compound: CC(C)OC(=O)Nc1ccccc1
- outcome [1]: inactive; no positive results

Compound: ClCOCC(COCCl)OCCl
- Potency [8]: 0.0145 mmol/kg/day

Compound: O=C(OOC(=O)c1ccccc1)c1ccccc1
- outcome [5]: inactive

Compound: CN(C)C(=O)Cl
- Potency [8]: 0.0499 mmol/kg/day

Compound: Nc1ccc(-c2ccc(F)cc2)cc1
- Potency [2]: 0.00609 mmol/kg/day

Compound: C=Cc1cccc[n+]1[O-]
- outcome [1]: inactive

Compound: CNC[C@H](O)c1ccc(O)c(O)c1
- outcome (TD50_Mouse_Note: only experiment is NCI/NTP bioassay inadequate, TargetSites_Mouse_Female: NTP bioassay inadequate): ntp bioassay inadequate

Compound: COC(=O)[C@H]1[C@H]2C[C@@H]3c4[nH]c5cc(OC)ccc5c4CCN3C[C@H]2C[C@@H](OC(=O)c2cc(OC)c(OC)c(OC)c2)[C@@H]1OC
- Potency (TD50_Mouse_Note: TD50 is harmonic mean of more than one positive test, TargetSites_Mouse_Female: mammary gland): 0.00825 mmol/kg/day

Compound: CN1[C@@H]2CC(OC(=O)[C@@H](CO)c3ccccc3)C[C@H]1[C@@H]1O[C@@H]12 (stereo partly drawn)
- outcome [1]: inactive; no positive results

Compound: Nc1c(Cl)cc([N+](=O)[O-])cc1Cl
- outcome [1]: inactive; no positive results

Compound: c1ccc2c(c1)[nH]c1ccccc12
- Potency [9]: 0.981 mmol/kg/day

Compound: Oc1cccc2cccnc12
- outcome [1]: inactive; no positive results

Compound: c1ccoc1
- Potency (TD50_Mouse_Note: TD50 is harmonic mean of more than one positive test, TargetSites_Mouse_Female: adrenal gland, liver): 0.04 mmol/kg/day

Compound: COC(=O)C(C)(C)Oc1ccc(-c2ccc(Cl)cc2)cc1
- Potency (TD50_Mouse_Note: TD50 is harmonic mean of more than one positive test, greater than ten-fold variation among TD50 values for positive res, TargetSites_Mouse_Female: liver): 0.00824 mmol/kg/day

Compound: CC(=O)N(O)c1ccc2c(c1)Cc1ccccc1-2
- Potency (TargetSites_Mouse_Female: esophagus, kidney, liver, stomach, urinary bladder): 0.026 mmol/kg/day

Compound: Cn1c(N)nc2ncc(-c3ccccc3)cc21
- Potency (TD50_Mouse_Note: TD50 is harmonic mean of more than one positive test, TargetSites_Mouse_Female: hematopoietic system): 0.127 mmol/kg/day

Compound: O=S(=O)(c1ccc(Cl)cc1)c1ccc(Cl)cc1
- outcome [1]: inactive; no positive results

Compound: CN(C)C(=S)[S-].CN(C)C(=S)[S-].[Cu+2]
- outcome [1]: inactive; no positive results

Compound: C/C=C/Cl
- Potency (TargetSites_Mouse_Female: stomach): 0.066 mmol/kg/day

Compound: CC[C@H](C)C(=O)O[C@H]1C[C@@H](C)C=C2C=C[C@H](C)[C@H](CC[C@@H]3C[C@@H](O)CC(=O)O3)[C@H]21
- Potency [6]: 1.27 mmol/kg/day

Compound: O=C1O[C@H]([C@H](O)CO)C(O)=C1O
- outcome [1]: inactive; no positive results

Compound: O=C(O)c1cc(Oc2ccc(C(F)(F)F)cc2Cl)ccc1[N+](=O)[O-]
- Potency [9]: 0.39 mmol/kg/day

Compound: Oc1ccccc1O
- Potency [7]: 2.22 mmol/kg/day

Compound: CC(COc1ccccc1)N(CCCl)Cc1ccccc1 (stereo not drawn)
- Potency (TD50_Mouse_Note: positive test results only by intraperitoneal or intravenous injection, TD50 is harmonic mean of more than one positive, TargetSites_Mouse_Female: peritoneal cavity): 0.0158 mmol/kg/day

Compound: CC1CO1 (stereo not drawn)
- Potency (TD50_Mouse_Note: TD50 is harmonic mean of more than one positive test, TargetSites_Mouse_Female: nasal cavity): 15.7 mmol/kg/day

Compound: CCN(CC)C(=S)S
- outcome [1]: inactive; no positive results

Compound: CN1C(=O)CN=C(c2ccccc2)c2cc(Cl)ccc21
- outcome [1]: inactive; no positive results

Compound: CC(CN1CC(=O)NC(=O)C1)N1CC(=O)NC(=O)C1 (stereo not drawn)
- Potency (TD50_Mouse_Note: positive test results only by intraperitoneal or intravenous injection, TargetSites_Mouse_Female: hematopoietic system): 0.0883 mmol/kg/day

Compound: O=C1c2cccc(O)c2C(=O)c2c(O)cccc21
- Potency: 0.837 mmol/kg/day

— PubChem BioAssay AID1199 (EPA DSSTox, 2008)
